The source made the active and inactive calls. The calls are words filed in the database; no cut-off is given here.

The test system of assay [1] is C6. Put plainly: Growth stimulation of rat C6 cells at 100 uM after 48 hrs by MTT assay relative to control. The format is functional. In general terms: Formazan colour is commonly taken as a measure of viable cells.
For assay [2], the system named is C6. Put plainly: Growth stimulation of rat C6 cells at 100 uM after 24 hrs by MTT assay relative to control. The class given is functional.
Assay [3] deals with C6. Put plainly: Cytotoxicity against rat C6 cells assessed as cell death after 24 to 48 hrs by MTT assay. The format is functional, cell-based.
Assay [4] relates to C6. Put plainly: Cytotoxicity against rat C6 cells assessed as decrease in cell number at 100 uM after 24 hrs by MTT assay. Further details: scale not given: the % may be the effect or the level left. The format is functional.
The subject of assay [5] is C6. Put plainly: Cytotoxicity against rat C6 cells assessed as decrease in cell number at 100 uM after 48 hrs by MTT assay. Further details: scale not given: the % may be the effect or the level left. The format is functional.
The test system of assay [6] is C6. Put plainly: Cytotoxicity against rat C6 cells assessed as cell death at 10 to 100 uM after 48 hrs by MTT assay. The format is functional, cell-based.
Assay [7] deals with C6. Put plainly: Cytotoxicity against rat C6 cells assessed as decrease in cell number at 10 uM after 24 hrs by MTT assay. The format is functional. Further details: scale not given: the % may be the effect or the level left.

For the compound `O[C@@]12CCO[C@@H]1Nc1ccccc12`, the Activity was 114.2% in assay [1] and 112% in assay [2].

As to `OC[C@H]1O[C@@H](N2c3ccccc3[C@]3(O)CCO[C@H]23)[C@H](O)[C@@H](O)[C@@H]1O`, the result in assay [3] was inactive.

On to `OC[C@@H]1O[C@H](N2c3ccccc3[C@]3(O)CCO[C@H]23)[C@@H](O)[C@H](O)[C@H]1O`, for which the Activity in assay [4] was found to be 83.9%; in assay [5] it was 87.9%; in assay [7], 92.4%. Also, in assay [6], the outcome was inactive.
